From patent US8362031B2, “Lonidamine analogues and treatment of polycystic kidney disease” (University of Kansas, priority 2004, dated 2013)
“Also recorded” adds a separate entry of the source.

Assays:
[1] = system: Salmonella Typhimurium TA 100; test: Ames test for mutagenicity (plate assay, colony count); details: 48 hours at 37° C.
[2] = system: ADPKD cyst-lining epithelial cells; test: MTT assay, proliferation of ADPKD cyst-lining epithelial cells; assay type: cell-based, human
Description: Gamendazole (GMZ) was studied to determine the effect on cAMP and EGF treated ADPKD cyst-lining epithelial cells. The cells were treated with 100 uM cAMP or 25 ng/ml EGF to stimulate cell proliferation. Increasing concentrations of gamendazole were added to the medium of the cells. After 72 hours of treatment, MTT assays were performed.
For the MTT assay shown in FIG. 10A, ADPKD cyst-lining epithelial cells were plated at a density of 4×10^3 cells per well in a 96-well cell culture plate (n=6). Cells were serum-starved for 24 hours and treated either with 100 μM cAMP or 25 ng/ml EGF to stimulate cell proliferation. For the MTT assay shown in FIG. 10B, ADPKD cells were plated at a density of 2×10^3 cells per well in medium containing 1% FBS. After 24 hours, medium was changed to include 5% FBS. Increasing concentrations of GMZ were added to the medium for the cells of both FIGS. 10A and 10B to determine the effect of GMZ on cell proliferation. After 72 hours of treatment, MTT assays were performed by adding dye solution to the cells and stopping the reaction four hours later. Optical densities were measured using a spectrophotometer. In each group, results were expressed as a percentage of the control group (not treated with GMZ).

[3] = system: PCNA (proliferating cell nuclear antigen); test: Immunostaining of organ culture kidney sections; assay type: cell-based, mouse; details: not shown
Source text: Since GMZ affects Hsp90 client proteins involved in cell proliferation, it was hypothesized that GMZ could also be inhibiting cell proliferation in the metanephric organ cultures. To test this idea, organ culture sections were immunostained with an antibody to PCNA (proliferating cell nuclear antigen), a marker of cell proliferation.

total ERK = test: Western blot of treated ADPKD cells; assay type: cell-based, human; details: 50 uM for 48 h
Description: (§1) Gamendazole (GMZ) was tested to determine if treatment decreases Hsp90 client protein levels in ADPKD cells. Briefly, ADPKD cells were treated with 50 μM GMZ for 24, 48 or 72 hours. Proteins from 20 μg total cell lysate were separated by SDS-PAGE, transferred to a PVDF membrane and probed with antibodies against the Hsp90 client proteins ErbB2 (185 kD), and cdk4 (34 kD). […] GMZ decreased the total levels of these client proteins in ADPKD cells. A decrease in P-ERK correlates with the inhibition of cell proliferation by GMZ. […] The data also provides an indication that other lonidamine derivatives may be useful in therapies for PKD.

P-ERK = test: Western blot of treated ADPKD cells; assay type: cell-based, human; details: 50 uM for 48 h, n=2
Description: as §1

ADPKD cells = test: Phalloidin staining of the actin cytoskeleton; assay type: cell-based, human; details: increasing concentrations
Description: To determine if gamendazole treatment alters actin cytoskeleton dynamics, ADPKD cells were stained with phalloidin and examined by fluorescence microscopy. […] Briefly, ADPKD cells or M-1 cortical collecting duct cells were plated in a 4-well chamber slide in 5% FBS-containing medium. After 24 hours, the cells were treated with increasing concentrations of GMZ. Cells were fixed using 4% paraformaldehyde and permeabilized with 0.2% Triton-X 100. Cells were then incubated for 20 min with TRITC-conjugated phalloidin, washed with PBS and mounted with DAPI-containing mounting medium. Images were captured at 10× (FIG. 13A) or 60× (FIG. 13B), using the same exposure settings for treated and untreated cells. […] Blue (internal staining) indicates DAPI-stained nuclei.

pcy mouse = test: In vivo treatment of the pcy mouse; details: 1 mg/kg IP, three times weekly from 5-20 weeks of age, after 12 weeks of treatment
Source text: The Pkd1 gene is orthologous to the gene involved in ˜85% of human ADPKD cases. […] Biol Reprod. 78(6):1139-52 (2008). If so, it could be reducing the levels of the Hsp90 client proteins, CFTR and NKCC1, both important for cyst-filling chloride secretion. Evidence is shown here that NKCC1 protein levels were reduced by GMZ treatment of metanephric kidneys in organ culture. Evidence was also shown for decreased PCNA levels, which is consistent with a general decrease in cell proliferation in these kidneys in organ culture, due probably to Hsp90 inhibition. The efficacy of GMZ on inhibition of cyst growth in vivo is currently being tested in the pcy mouse, a mouse model of nephronophthisis-3 (NPHP3) which has a slowly progressive renal cystic disease. […] Accordingly, gamendazole inhibits cell proliferation and cAMP-stimulated cyst-like expansion (in metanephric organ cultures). The mechanisms may involve: a direct and rapid inhibition of forskolin-stimulated CFTR channel activity; inhibition of Hsp90 chaperone function leading to long-term reduction of NKCC1 protein levels; or reduction of PKD proliferation pathway components. Thus, GMZ appears to be a potent inhibitor of these two important processes involved in PKD pathogenesis.

[4] = system: CFTR-mediated chloride transport; test: Forskolin-induced short-circuit current in ADPKD cell monolayers; assay type: cell-based, human
Description: To determine if the ability of GMZ to inhibit cAMP-stimulated tubule expansion was due to inhibition of CFTR-mediated chloride transport, forskolin-induced short-circuit current was measured with cyst-lining epithelial cells derived from two human ADPKD (autosomal dominant PKD) kidneys. FSK is an adenylyl cyclase agonist, which increases the levels of intracellular cAMP. The cAMP then opens the CFTR chloride channel. […] The bars in FIG. 12G show the results for the three treatments. 1 microM gamendazole applied to the apical side of the cell monolayer was effective in inhibiting greater than 40 percent of the forskolin-stimulated transepithelial chloride transport.

Structure (SMILES) | Ames test (+)S9 0.1 mg/pl. ([1]; (+)S9 mix, 0.1 mg/pl.) | Ames test (+)S9 1 mg/pl. ([1]; (+)S9 mix, 1 mg/pl.) | Ames test (+)S9 10 mg/pl. ([1]; (+)S9 mix, 10 mg/pl.) | Ames test (−)S9 0.1 mg/pl. ([1]; (−)S9 mix, 0.1 mg/pl.) | Ames test (−)S9 1 mg/pl. ([1]; (−)S9 mix, 1 mg/pl.) | Ames test (−)S9 10 mg/pl. ([1]; (−)S9 mix, 10 mg/pl.) | EGF-induced proliferation of ADPKD cells (MTT) ([2]; 25 ng/ml EGF, 1 uM to 25 uM GMZ for 72 h, dose-dependent) | cell proliferation at 10 μM ([2]; 10 μM) | cAMP-induced proliferation of ADPKD cells (MTT) ([2]; 100 μM cAMP, 1 uM to 25 uM GMZ for 72 h, dose-dependent) | Cell proliferation of ADPKD cells with increasing concentration (MTT, FIGS. 10A and 10B) ([2]; cAMP, EGF or 5% FBS medium, 72 hours) | PCNA staining [3] | total ERK levels (total ERK) | P-ERK levels (P-ERK) | Cell morphology, actin cytoskeleton (ADPKD cells) | Tolerability in the pcy mouse (pcy mouse) | inhibition at 1 µM ([4]; Homo sapiens, 1 microM applied to the apical side, 10 microM forskolin, read-out: inhibition of the forskolin-stimulated transepithelial chloride transport) [%] | forskolin-induced Cl-secretion (short-circuit current) ([4]; human ADPKD cells, in the presence of benzamil) | Concentration needed to inhibit CFTR-mediated chloride channel activity, compared with lonidamine ([4]; human cyst epithelial cells (ADPKD cells))
O=C(O)/C=C/c1nn(Cc2ccc(Cl)cc2Cl)c2cc(C(F)(F)F)ccc12 [RC-MC-110, trans 3-[1-(2,4-dichlorobenzyl)-6-trifluoromethyl-1H-indazol-3-yl]-acrylic acid] | Pass | Pass | Pass | Pass | Pass | Pass | – | – | – | – | – | – | – | – | – | – | – | –
O=C(O)CCc1nn(Cc2ccc(Cl)cc2Cl)c2cc(C(F)(F)F)ccc12 [GMZ, 3-[1-(2,4-dichlorobenzyl)-6-trifluoromethyl-1H-indazol-3-yl]-propionic acid] | – | – | – | – | – | – | significantly inhibited | no effect on cell proliferation | significantly inhibited | more effectively inhibited cell proliferation as the concentration was increased | overall less staining, and fewer tubule cells staining for PCNA | unchanged | 71.2 % of controls | smaller, without leading edges and with less filamentous actin | the treated mice appear to be tolerating GMZ | > 40 | almost completely block | at much lower concentration; also recorded: effective at lower doses than was Lonidamine itself
